Like-named read-outs stand apart in the source and are kept apart here.
How the values were obtained:
[1] = plasma protein binding in bovine plasma (ultrafiltration); conditions: bovine plasma from two cows, 2000 x g
[2] = bovine blood in vitro hemodialysis model: hemofilter clearance; assay type: in vitro ADME; conditions: for Cl, in vitro clearance rate: ultrafiltration 0 ml/min, 37°C, corrected by hematocrit
Protocol: Hemodialysis was simulated using a Fresenius 4008H dialysis machine. After priming of the extracorporeal circuit including the dialysis membrane with 0.9% saline solution, a reservoir bag containing 2 L of 37°C warm heparinized bovine blood (provided in cooperation with the University of Veterinary Medicine Vienna after seeking authorization by the institutional and governmental ethics committee, (ZI.04/04/972,013, GZ: 68.205/0240-WF/V/3b/2016) was connected to the circuit. The blood was kept at 37°C throughout the experiment. It was mixed with 2,000 IU of low molecular weight heparin directly during the blood draw as well as during the experiment itself with a rate of 500 IU per hour. After circuit connection, the investigated drug was added to the reservoir in order to mimic plasma levels previously described in trials ([Lanese et al., 1989]; [Thalhammer et al., 1997]; [Amin et al., 1999]). […] After priming the system with blood, it was allowed to run for 30 s to allow equilibration of blood hematocrit throughout the extracorporeal circuit before the baseline sample was drawn. Due to the reduced volume compared to in vivo and the comparably large hemofilter membrane area, a considerably faster drug concentration decline was expected. Thus, pre filter, post filter and ultrafiltrate samples were collected at the end of minutes 1, 5, 10, 15, 20, 30, 40 and 60 of the run. All samples were plasma separated by centrifugation at 2000 ×vg for 7 min and the supernatant stored at −80°C for analysis.
An actual blood flow rate of 300 ml/min and a dialysate flow rate of 500 ml/min were kept as standard flow rates. Depending on previous literature, single drugs were run at different flow rates to allow external validation of the model. Ultrafiltration (corresponding to negative fluid balance/water removal during hemodialysis) was kept at 0 ml/min. […] Hemodialysation and hemofiltration experiments were performed with Baxter Gambro CAHP 170 diacetate devices, Nipro Sureflux 17UX and 21UX triacetate membranes as well as Fresenius Hemoflow F80s and FX 80 polysulphone membranes.
The measured drug plasma concentrations were analyzed to calculate the area under the curve, hemofilter clearance and the drug saturation coefficient. As removal within the hemofilter is expected to be too fast for equilibration of drugs out of the erythrocyte compartment and drug concentrations were measured in the plasma, all clearance values were calculated with a hematocrit corrected formula, in which Hc is the blood hematocrit in percent divided by 100, BFR the actual blood flow rate, Cpre the drug concentration measured before the blood enters the filter and Cpost the drug concentration measured after the filter. Additionally the formula allows for correction of blood concentration by ultrafiltration (UFR). (1−Hc)×BFR×Cpre−(Cpost(BFR−UFR))/BFR/[…]
Hematocrit corrected and not corrected clearance, total “body” clearance, volume of distribution, area under curve, elimination coefficient and half-life were evaluated for their correspondence to previously published in vivo values. Whenever previous publications declared the method of clearance calculation, the same formula was used. […] An empirical fitting of the in vitro PK curves and available in vivo PK curves was performed to gain an insight into the time relation between in vitro and in vivo.
More recent historic data on intradialytic gentamicin clearance only exists for the Baxter CAHP-210 membrane ([Sowinski et al., 2008]) and the Fresenius F80s ([Amin et al., 1999]) which are both not available anymore. Baxter however was kind enough to supply us with several CAHP-170 and […] models. To extrapolate assumed clearance of a CAHP-210, we compared clearance gains between a Nipro Sureflux 17UX and a Sureflux 21UX membrane.

[3] = cited from earlier work
[4] = cited from earlier work; remark: listed apart in the source
Excerpt: TABLE 2 Comparison of in vitro and in vivo clearance values.

[5] = earlier publications, slightly higher bound fraction, (±3.0); ref PMC, 1972; cited from earlier work
[6] = membrane Fx80 (Fresenius high flux polysulphone, 1.8 m^2), BFR 300 ml/min, DFR 500 ml/min, bovine blood, mean, N = 12

C[C@@H](O)[C@H]1C(=O)N2C(C(=O)O)=C(S[C@@H]3CN[C@H](CNS(N)(=O)=O)C3)[C@H](C)[C@H]12 [Doripenem, doripenem]
plasma protein binding, Bovine ([1]; Centrisart I devices, 20 min, room temperature, HPLC): 9.7% | Cl, in vitro clearance rate [2, 6]: 141.25 mL/min | Cl, in vitro clearance rate ([2]; membrane SF21UX (Nipro cellulose triacetate, 2.1 m^2), BFR 300 ml/min, DFR 500 ml/min, bovine blood, mean, N = 12): 155.76 mL/min | plasma protein binding, Human [3]: 8.0% | Clin vivo, clearance as described in referenced publication ([4]; human, in vivo): 148.61 mL/min

CNC(C)C1CCC(N)C(OC2C(N)CC(N)C(OC3OCC(C)(O)C(NC)C3O)C2O)O1 (centres unmarked) [Gentamicin, gentamicin]
Cl, in vitro clearance rate ([2]; membrane CAHP-170 (Baxter cellulose diacetate, 1.7 m^2), BFR 400 ml/min, DFR 800 ml/min, bovine blood, mean, N = 16): 90.12 mL/min | Cl, in vitro clearance rate ([2]; membrane F80s (Fresenius high flux polysulphone, 1.8 m^2), BFR 300 ml/min, DFR 500 ml/min, bovine blood, mean, N = 12): 122.37 mL/min | Cl, in vitro clearance rate ([2]; membrane F80s (Fresenius high flux polysulphone, 1.8 m^2), BFR 400 ml/min, DFR 800 ml/min, bovine blood, mean, N = 12): 137.62 mL/min | Cl, in vitro clearance rate [2, 6]: 142.13 mL/min | Cl, in vitro clearance rate ([2]; membrane Fx80 (Fresenius high flux polysulphone, 1.8 m^2), BFR 400 ml/min, DFR 800 ml/min, bovine blood, mean, N = 12): 187.90 mL/min | Cl, in vitro clearance rate ([2]; membrane SF17UX (Nipro cellulose triacetate, 1.7 m^2), BFR 400 ml/min, DFR 800 ml/min, bovine blood, mean, N = 12): 160.75 mL/min | Cl, in vitro clearance rate ([2]; membrane SF21E (Nipro Sureflux-21E medium-flux cellulose triacetate, 2.1 m^2), BFR 400 ml/min, DFR 800 ml/min, 2 L heparinized bovine blood, mean, N = 12): 131.52 mL/min | Cl, in vitro clearance rate ([2]; membrane SF21UX (Nipro cellulose triacetate, 2.1 m^2), BFR 400 ml/min, DFR 800 ml/min, bovine blood, mean, N = 17): 178.25 mL/min

CN[C@H](CC(C)C)C(=O)N[C@H]1C(=O)N[C@@H](CC(N)=O)C(=O)N[C@H]2C(=O)N[C@H]3C(=O)N[C@H](C(=O)N[C@H](C(=O)O)c4cc(O)cc(O)c4-c4cc3ccc4O)[C@H](O)c3ccc(c(Cl)c3)Oc3cc2cc(c3O[C@@H]2O[C@H](CO)[C@@H](O)[C@H](O)[C@H]2O[C@H]2C[C@](C)(N)[C@H](O)[C@H](C)O2)Oc2ccc(cc2Cl)[C@H]1O [Vancomycin, vancomycin]
plasma protein binding, Bovine ([1]; Millipore Centrefree device, 1 ml aliquot, 10 min, Cobas VANC3 assay): 43.6% | plasma protein binding, Human ([3]; previously published value, ref Butterfield et al. (2011)): 41.5% | Clin vivo, clearance as described in referenced publication ([4]; hemodialysis patients, membrane F60s, ref Lanese et al. (1989)): 73.0 mL/min | Clin vivo, clearance as described in referenced publication ([4]; hemodialysis patients, membrane F80s, ref Lanese et al. (1989)): 85.2 mL/min | bound fraction [5]: 54.8%

teicoplanin
Cl, in vitro clearance rate ([2]; membrane F60s (Fresenius polysulphone), BFR 250 ml/min, DFR 500 ml/min, bovine blood, mean, N = 16): 25.50 mL/min | Clin vitro, non hematocrit corrected clearance ([2]; membrane F60s, bovine blood in vitro hemodialysis, non hematocrit corrected, mean): 38.95 mL/min | Cl, in vitro clearance rate ([2]; membrane Fx80 (Fresenius polysulphone), BFR 250 ml/min, DFR 500 ml/min, bovine blood, mean, N = 12): 43.49 mL/min | clearance, simulation with Sureflux SF 21E triacetate dialyzer ([2]; membrane Sureflux SF 21E triacetate, bovine blood in vitro hemodialysis, flow rates not given): 17.6 mL/min | Clin vivo, non-hematocrit corrected clearance ([4]; human, in vivo): 39.70 mL/min

From PMC8264131 (Frontiers in Pharmacology, 2021)
